pKi: −log10 of the molar value.
biological target: T1, human H3R (Homo sapiens, UniProt Q9Y5N1); assay: Binding assay with 3H-(R)α-methylhistamine (competition binding, H3R-CHO membranes); details: competition vs 3H(R)α-methylhistamine (1 nM), membranes of the human H3R-CHO cell line; Ki calculated from IC50 by Cheng-Prusoff
T1 construct: expressed in transfected cells; host or cells: CHO cells
Description: Binding Assay with ^3H—(R)α-methylhistamine
Saturation binding experiments were performed using HR3-CHO membranes prepared as described in Takahashi, K, Tokita, S., Kotani, H. (2003) J. Pharmacol. Exp. Therapeutics 307, 213-218.
An appropriate amount of membrane (60 to 80 μg protein/well) was incubated with increasing concentrations of ^3H(R)α-Methylhistamine di-hydrochloride (0.10 to 10 nM). Non specific binding was determined using a 200 fold excess of cold (R)α-Methylhistamine dihydrobromide (500 nM final concentration). The incubation was carried out at room temperature (in deep-well plates shaking for three hours). The final volume in each well was 250 μl. The incubation was followed by rapid filtration on GF/B filters (pre-soaked with 100 μl of 0.5% PEI in Tris 50 mM shaking at 200 rpm for two hours). The filtration was made using a cell-harvester and the filter plates were then washed five times with ice cold washing buffer containing 0.5 M NaCl. After harvesting, the plates were dried at 55° C. for 60 min, then we added scintillation fluid (Microscint 40, 40 microl in each well) and the amount of radioactivity on the filter was determined in Packard top-counter after shaking the plates for two hours at 200 rpm at room temperature. • Binding Buffer: 50 mM Tris-HCl pH 7.4 and 5 mM MgCl2×6H2O pH 7.4. Washing Buffer: 50 mM Tris-HCl pH 7.4 and 5 mM MgCl2×6H2O and 0.5 M NaCl pH 7.4.
Indirect measurement of affinity of H3R inverse agonists: twelve increasing concentrations (ranging from 10 μM to 0.3 nM) of the selected compounds were always tested in competition binding experiments using membrane of the human H3R—CHO cell line. An appropriate amount of protein, e.g. approximately 500 cpm binding of RAMH at Kd, were incubated for 1 hour at room temperature in 250 μl final volume in 96-well plates in presence of ^3H(R)α-methylhistamine (1 nM final concentration=Kd). Non-specific binding was determined using a 200 fold excess of cold (R)α-methylhistamine dihydrobromide.
All compounds were tested at a single concentration in duplicate. […] The concentration at which 50% inhibition of the radioligand ^3H(R)α-methylhistamine is obtained (the IC50) is determined from the linear regression of a plot of the logarithm of the concentration versus percent inhibition measured for the different concentrations. Ki's were calculated from IC50 based on Cheng-Prusoff equation (Cheng, Y. Prusoff, W H (1973) Biochem Pharmacol 22, 3099-3108): Ki=IC50/[1+D/Kd] wherein D is the concentration of the radioligand and Kd is the binding constant for the radioligand binding to the receptor under the conditions used in the competition experiment.

T1 sequence (Q9Y5N1 whole entry): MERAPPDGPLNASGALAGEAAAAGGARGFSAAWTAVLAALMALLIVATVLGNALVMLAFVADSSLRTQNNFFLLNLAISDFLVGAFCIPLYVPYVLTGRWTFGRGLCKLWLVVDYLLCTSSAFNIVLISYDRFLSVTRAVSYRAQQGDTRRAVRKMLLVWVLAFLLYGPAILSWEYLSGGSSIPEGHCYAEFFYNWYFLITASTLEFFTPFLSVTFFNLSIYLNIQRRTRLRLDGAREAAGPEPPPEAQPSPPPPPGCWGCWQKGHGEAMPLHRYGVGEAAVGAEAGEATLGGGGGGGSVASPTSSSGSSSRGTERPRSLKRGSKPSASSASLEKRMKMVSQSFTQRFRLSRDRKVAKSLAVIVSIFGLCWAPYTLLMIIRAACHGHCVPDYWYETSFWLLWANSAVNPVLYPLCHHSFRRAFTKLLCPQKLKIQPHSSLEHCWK

Question: How did the pKi turn out when CC(C)N1CCC(Oc2ccc3c(c2)cc(C(=O)N2CCN(S(C)(=O)=O)CC2)n3CC(F)F)CC1 [Example 55, [1-(2,2-Difluoro-ethyl)-5-(1-isopropyl-piperidin-4-yloxy)-1H-indol-2-yl]-(4-methanesulfonyl-piperazin-1-yl)-methanone] was run?
Answer: The pKi was 8.17.

Question: COC(=O)N1CCN(C(=O)c2cc3cc(OC4CCN(C(C)C)CC4)ccc3n2C(C)C)CC1 [Example 73, 4-[1-Isopropyl-5-(1-isopropyl-piperidin-4-yloxy)-1H-indole-2-carbonyl]-piperazine-1-carboxylic acid methyl ester] was tested. Which pKi did it give?
Answer: The pKi was 7.98.

Question: How did the pKi turn out when CC(C)N1CCC(Oc2cc3cc(C(=O)N4CCN(C(=O)C5CC5)CC4)[nH]c3cc2Br)CC1 [Example 18, [6-Bromo-5-(1-isopropyl-piperidin-4-yloxy)-1H-indol-2-yl]-(4-cyclopropanecarbonyl-piperazin-1-yl)-methanone] was run?
Answer: Its pKi is 8.64.

Question: CC(=O)N1CCN(C(=O)c2cc3cc(OC4CCN(C(C)C)CC4)c(Br)cc3n2-c2ccnc(Cl)c2)CC1 [Example 28, 1-{4-[6-Bromo-1-(2-chloro-pyridin-4-yl)-5-(1-isopropyl-piperidin-4-yloxy)-1H-indole-2-carbonyl]-piperazin-1-yl}-ethanone] was tested. Which pKi did it give?
Answer: Its pKi is 8.74.

Question: CC(C)N1CCC(Oc2cc3cc(C(=O)N4CCN(S(C)(=O)=O)CC4)n(C(C)C)c3cc2Br)CC1 [Example 5, [6-Bromo-1-isopropyl-5-(1-isopropyl-piperidin-4-yloxy)-1H-indol-2-yl]-(4-methanesulfonyl-piperazin-1-yl)-methanone] was tested. Which pKi did it give?
Answer: The pKi was 8.47.

Question: How did the pKi turn out when Cc1ccc(S(=O)(=O)N2CCN(C(=O)c3cc4cc(O[C@H]5C[C@H]6CC[C@@H](C5)N6C(C)C)ccc4n3C(C)C)CC2)cc1 [Example 44, [1-Isopropyl-5-((1S,3r,5R)-8-isopropyl-8-aza-bicyclo[3.2.1]oct-3-yloxy)-1H-indol-2-yl]-[4-(toluene-4-sulfonyl)-piperazin-1-yl]-methanone] was run?
Answer: The pKi was 8.62.

Question: With CC(C)N1CCC(Oc2cc3cc(C(=O)N4CCN(S(=O)(=O)N(C)C)CC4)[nH]c3cc2Br)CC1 [Example 3, 4-[6-Bromo-5-(1-isopropyl-piperidin-4-yloxy)-1H-indole-2-carbonyl]-piperazine-1-sulfonic acid dimethylamide] as the compound, how does the pKi read?
Answer: The pKi was 8.37.

From patent US7507736B2, “Indol-2-yl-piperazin-1-yl-methanone derivatives” (Hoffmann-La Roche Inc., priority 2007, dated 2009)
